Assay results taken from paper PMC10518255, “A first-in-class pan-lysyl oxidase inhibitor impairs stromal remodeling and enhances gemcitabine response and survival in pancreatic cancer” (Nature Cancer, 2023).
Values joined by “and” are separate entries in the source; they are usually repeats but may differ in a detail not shown here. Equal entries are not always repeated.

Experiments:
TKCC10 human PDX tumors = assay: TKCC10 human model survival study (Extended Data Fig. 5k); assay type: in vivo, mouse
Protocol: Subcutaneous PDX studies were performed by implanting early passage PDX pieces (~4 mm^3) or TKCC10 CCs (1.5 × 10^6 cells per mouse in 100 μl PBS/Matrigel 1:1) into female (PDX) or male (TKCC10) 8-week-old immunocompromised nude Balb/c-Fox1nuAusb mice subcutaneously on the left flank. For the duration of the study, mice were kept in conventional caging with environmental enrichment, access to standard chow, water ad libitum and 12-h light–dark cycle at ambient temperature and humidity. […] Tumor size was monitored every second day by calipers. Tumor volume was calculated using the formula (length × width^2)/2. […]
Extended Data Fig. 5 PXS-5505 in combination with gemcitabine in vivo. a. […] Signal is defined as the enzyme activity in the aorta, while noise is measured in the presence of a high concentration (300 µM) BAPN to abolish any lysyl oxidase family activity. […] FITC-dextran (molecular weight: 10 kDa) signal quantification from KPC tumor end point from each treatment group (vehicle n = 3 biologically independent animals, PXS-5505 n = 5 biologically independent animals, Gem n = 5 biologically independent animals, PXS-5505 + Gem n = 5 biologically independent animals). […] P-values determined by Welchs t-test. […] Quantification of red birefringent (mature) collagen fibers from human PDXs at end point after 3 cycles of treatment, treated as indicated. […]

pSTAT3 = assay: Immunohistochemistry of end-point KPC tumors: STAT3 activation; assay type: in vivo, mouse; details: for Quantification of STAT3 activation (pSTAT3 positive nuclear staining): Extended Data 6F, KPC tumours at endpoint, individual FOV
Protocol: All tissues or matrices, including patient TMAs, were fixed in 10% buffered formalin and embedded in paraffin. The 4-μm sections of samples were deparaffinized with xylene and rehydrated in graded ethanol washes. For immunohistochemistry, Bond Dewax Solution (AR9222) was used. Antigen retrieval was performed using Bond RX H2(30) protocol: HIER 30 min ER1 (citrate pH 6) OR ER2 (EDTA pH 9) at 100 °C. Slides were quenched in BOND Polymer Refine Detection (Leica Biosystems DS9800). […] Slides were digitized on an Aperio slide scanner and representative areas per tumor acquired and analyzed by researchers blinded to the conditions of the experiment.
Extended Data Fig. 6 PXS-5505 in combination with gemcitabine in a KPC model. a. Quantification of proliferating cells (Ki67 positive nuclear staining) in KPC tumors at end point, treated as indicated. 5 fields of view (500 μm × 500 μm) per mouse and 10 mice per cohort were scored. […] Quantification of percent coverage of αSMA positive staining in KPC tumors at end point, treated as indicated. 3 fields of view (1000 μm × 1000 μm) per mouse and 10 mice per cohort were scored. […] Quantification of percent coverage of PDGFR-ß positive staining in KPC tumors at end point, treated as indicated. 3 fields of view (1000 μm × 1000 μm) per mouse and 10 mice per cohort were scored. […] Quantification of pMLC2 positive staining in stromal regions of KPC tumors at end point, treated as indicated. 3 fields of view (500 μm × 500 μm) per mouse and 10 mice per cohort were scored. […] Quantification of tumor vasculature (CD31 positive staining) in KPC tumors at end point, treated as indicated. 3 fields of view (1000 μm × 1000 μm) per mouse and 10 mice per cohort were scored. […] Quantification of STAT3 activation (pSTAT3 positive nuclear staining) in KPC tumors at end point, treated as indicated. 3 fields of view (1000 μm × 1000 μm) per mouse and 5 mice per cohort were scored. […] Scale bars = 100 μm. g Quantification of macrophage infiltration (F4/80 positive staining) in KPC tumors at end point, treated as indicated. […]

Compound	median survival (time under treatment after tumor reached 50 mm^3) (TKCC10 human PDX tumors) [days]	Quantification of STAT3 activation (pSTAT3 positive nuclear staining) (pSTAT3)	pSTAT3-positive nuclear staining (pSTAT3; KPC tumors at end point)
Nc1ccn([C@@H]2O[C@H](CO)[C@@H](O)C2(F)F)c(=O)n1 [Gem, gemcitabine]	29	1.773 and 0.7075 and 2.095 and 2.515 and 2.91 and 1.454 and 7.421 and 2.089 and 1.705 and 5.289 and 6.71 and 3.256 and 6.948 and 7.388 and 6.1144	significantly increased levels of pSTAT3-positive staining
Cl.Cl.NC/C=C(\F)CS(=O)(=O)c1cccc2cccnc12.O [PXS-5505, (Z)-3-fluoro-4-(quinolin-8-ylsulfonyl)but-2-en-1-amine dihydrochloride monohydrate]	16	2.225 and 1.368 and 3.504 and 0.042 and 0 (2×) and 3.991 and 1.153 and 0.6262 and 11.8493 and 3.81 and 4.532 and 0.05376	–
